According to patent US20120258980A1, “Antibacterial Agent for Drug-Resistant Bacteria, Method for Screening for Same, and Use of Same” (priority 2009, published 2012):
Converted amounts (≈) assume the structure as drawn. Like-named read-outs stand apart in the source and are kept apart here.

Tests used:
[1] = test system: methicillin-susceptible S. aureus (MSSA), MRSA and mutants thereof; assay: MIC measurement, Test Example 3 (MSSA, MRSA and sequential gyrA/grlA quinolone-resistant mutants); type: cell-based, Staphylococcus aureus; details: Staphylococcus aureus
Outline: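 Clinical isolates and stepwise gyrA/grlA quinolone-resistant mutants grown overnight at 37° C in TSB, adjusted to A578 0.3 in CAMHB, diluted 500-fold and mixed 1:1 with drug dilutions in CAMHB.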

[2] = test system: VISA clinical isolates of MRSA (VI-MRSA) and of MSSA (VI-MSSA); assay: microbe, parasite or virus in culture; type: cell-based, Staphylococcus aureus
Outline: (§1)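 Strains were grown overnight at 37° C in TSB, adjusted in CAMHB to 0.3 absorbance at 578 nm and diluted 500-fold before equal-volume addition to compound dilutions.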

VRSA clinical isolates = assay: microbe, parasite or virus in culture; type: cell-based; details: Staphylococcus aureus
Outline: as §1

Enterococcus faecalis = assay: MIC measurement, Test Example 6 (enterococcus); type: cell-based; details: Enterococcus faecalis, read-out: MIC
Outline: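 E. faecalis strains, including vancomycin-resistant NCTC12201 and NCTC12203, pre-grown overnight in TSB at 37° C, set to A578 0.3 in CAMHB, then diluted 500-fold.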

Compound: CC1COc2c(N3CCN(C)CC3)c(F)cc3c(=O)c(C(=O)O)cn1c23 (stereo not drawn) [OFLX, ofloxacin]
- MIC ([1]; MR5867-1, first-step quinolone-resistant mutant, grlA E84K): 1 µg/mL (≈ 2.77 µM)
- MIC ([1]; MR5867-3, third-step mutant, further grlA S80F): 64 µg/mL (≈ 177 µM)
- MIC ([1]; MR5867-4, fourth-step mutant, further gyrA E88K): > 128 µg/mL
- MIC ([1]; MS5935-1, first-step quinolone-resistant mutant, grlA S80F): 1 µg/mL (≈ 2.77 µM)
- MIC ([1]; MS5935-3, third-step mutant, further grlA E84K): 128 µg/mL (≈ 354 µM)
- MIC ([1]; MS5952-1, first-step quinolone-resistant mutant, grlA S80Y): 1 µg/mL (≈ 2.77 µM)
- MIC ([1]; MS5952-3, third-step mutant, further grlA A116V): 64 µg/mL (≈ 177 µM)
- MIC ([2]; Staphylococcus aureus, 99/3700-W, VI-MRSA, The United Kingdom): 16 µg/mL (≈ 44.3 µM)
- MIC ([2]; Staphylococcus aureus, 99/3759-V, VI-MRSA, The United Kingdom): 32 µg/mL (≈ 88.6 µM)
- MIC ([2]; Staphylococcus aureus, 28160, VI-MRSA, South African Republic): 64 µg/mL (≈ 177 µM)
- MIC ([2]; Staphylococcus aureus, 98141, VI-MRSA, France): 16 µg/mL (≈ 44.3 µM)
- MIC ([2]; Staphylococcus aureus, A7 (JCSC4842), VI-MRSA, Taiwan): 16 µg/mL (≈ 44.3 µM)
- MIC ([2]; Staphylococcus aureus, AMC11094, VI-MRSA, Korea): 128 µg/mL (≈ 354 µM)
- MIC ([2]; Staphylococcus aureus, B7 (JCSC4852), VI-MRSA, Taiwan): 16 µg/mL (≈ 44.3 µM)
- MIC ([2]; Staphylococcus aureus, BR1, VI-MRSA, Brazil): 64 µg/mL (≈ 177 µM)
- MIC ([2]; Staphylococcus aureus, BR2, VI-MRSA, Brazil): 64 µg/mL (≈ 177 µM)
- MIC ([2]; Staphylococcus aureus, BR3, VI-MRSA, Brazil): 64 µg/mL (≈ 177 µM)
- MIC ([2]; Staphylococcus aureus, BR4, VI-MRSA, Brazil): 64 µg/mL (≈ 177 µM)
- MIC ([2]; Staphylococcus aureus, BR5, VI-MRSA, Brazil): 64 µg/mL (≈ 177 µM)
- MIC ([2]; Staphylococcus aureus, HIP06297, VI-MRSA, America): 16 µg/mL (≈ 44.3 µM)
- MIC ([2]; Staphylococcus aureus, HIP06854, VI-MRSA, America): 16 µg/mL (≈ 44.3 µM)
- MIC ([2]; Staphylococcus aureus, HIP07920, VI-MRSA, America): 16 µg/mL (≈ 44.3 µM)
- MIC ([2]; Staphylococcus aureus, HIP07930, VI-MRSA, America): 32 µg/mL (≈ 88.6 µM)
- MIC ([2]; Staphylococcus aureus, HIP08926, VI-MRSA, America): 16 µg/mL (≈ 44.3 µM)
- MIC ([2]; Staphylococcus aureus, HIP09143, VI-MRSA, America): 64 µg/mL (≈ 177 µM)
- MIC ([2]; Staphylococcus aureus, HIP09313, VI-MRSA, America): 16 µg/mL (≈ 44.3 µM)
- MIC ([2]; Staphylococcus aureus, HIP09433, VI-MRSA, America): 64 µg/mL (≈ 177 µM)
- MIC ([2]; Staphylococcus aureus, HIP09662, VI-MRSA, America): 32 µg/mL (≈ 88.6 µM)
- MIC ([2]; Staphylococcus aureus, HIP09735, VI-MRSA, America): 32 µg/mL (≈ 88.6 µM)
- MIC ([2]; Staphylococcus aureus, HIP09737, VI-MSSA, America): 64 µg/mL (≈ 177 µM)
- MIC ([2]; Staphylococcus aureus, HIP09740, VI-MRSA, America): 64 µg/mL (≈ 177 µM)
- MIC ([2]; Staphylococcus aureus, HIP10267, VI-MRSA, America): 64 µg/mL (≈ 177 µM)
- MIC ([2]; Staphylococcus aureus, HIP10540, VI-MRSA, America): 32 µg/mL (≈ 88.6 µM)
- MIC ([2]; Staphylococcus aureus, HIP12864, VI-MRSA, America): 64 µg/mL (≈ 177 µM)
- MIC ([2]; Staphylococcus aureus, HIP13036, VI-MRSA, America): 8 µg/mL (≈ 22.1 µM)
- MIC ([2]; Staphylococcus aureus, HIP13057, VI-MRSA, America): 32 µg/mL (≈ 88.6 µM)
- MIC ([2]; Staphylococcus aureus, IL (HIP7737), VI-MRSA, America): 128 µg/mL (≈ 354 µM)
- MIC ([2]; Staphylococcus aureus, JCSC7193, VI-MRSA, Thailand): 16 µg/mL (≈ 44.3 µM)
- MIC ([2]; Staphylococcus aureus, JCSC7195, VI-MRSA, Thailand): 64 µg/mL (≈ 177 µM)
- MIC ([2]; Staphylococcus aureus, JCSC7203, VI-MRSA, Thailand): 16 µg/mL (≈ 44.3 µM)
- MIC ([2]; Staphylococcus aureus, LIM2, VI-MRSA, France): 64 µg/mL (≈ 177 µM)
- MIC ([2]; Staphylococcus aureus, LY-1999-01, VI-MSSA, Oman): 8 µg/mL (≈ 22.1 µM)
- MIC ([2]; Staphylococcus aureus, LY-1999-03, VI-MRSA, Oman): 8 µg/mL (≈ 22.1 µM)
- MIC ([2]; Staphylococcus aureus, MI (HIP5827), VI-MRSA, America): 128 µg/mL (≈ 354 µM)
- MIC ([2]; Staphylococcus aureus, MRSA / MSSA / NRS 76 / VISA, NRS76, VI-MSSA, America): 64 µg/mL (≈ 177 µM)
- MIC ([2]; Staphylococcus aureus, MRSA / MSSA / NRS 79 / VISA, NRS79, VI-MRSA, America): 128 µg/mL (≈ 354 µM)
- MIC ([2]; Staphylococcus aureus, MRSA / MSSA / NRS 118 / VISA, NRS118, VI-MRSA, America): 64 µg/mL (≈ 177 µM)
- MIC ([2]; Staphylococcus aureus, MRSA / MSSA / NRS 126 / VISA, NRS126, VI-MRSA, America): 16 µg/mL (≈ 44.3 µM)
- MIC ([2]; Staphylococcus aureus, Mu3, VI-MRSA, Japan): 16 µg/mL (≈ 44.3 µM)
- MIC ([2]; Staphylococcus aureus, Mu50, VI-MRSA, Japan): 16 µg/mL (≈ 44.3 µM)
- MIC ([2]; Staphylococcus aureus, NJ (HIP5836), VI-MRSA, America): 64 µg/mL (≈ 177 µM)
- MIC ([2]; Staphylococcus aureus, P1V44, VI-MSSA, Belgium): 4 µg/mL (≈ 11.1 µM)
- MIC ([2]; Staphylococcus aureus, PC, VI-MRSA, America): 16 µg/mL (≈ 44.3 µM)
- MIC ([2]; Staphylococcus aureus, SA MER-S6, VI-MSSA, France): 1 µg/mL (≈ 2.77 µM)
- MIC ([2]; Staphylococcus aureus, SA MER-S12, VI-MSSA, France): 0.5 µg/mL (≈ 1.38 µM)
- MIC ([2]; Staphylococcus aureus, SA MER-S20, VI-MSSA, France): 0.25 µg/mL (≈ 0.692 µM)
- MIC (VRSA clinical isolates; VRS1, VRSA, Michigan): 32 µg/mL (≈ 88.6 µM)
- MIC (VRSA clinical isolates; VRS2, VRSA, Pennsylvania): 32 µg/mL (≈ 88.6 µM)
- MIC (VRSA clinical isolates; VRS3, VRSA, New York): 32 µg/mL (≈ 88.6 µM)
- MIC (VRSA clinical isolates; VRS4, VRSA, New York): 32 µg/mL (≈ 88.6 µM)
- MIC (VRSA clinical isolates; VRS5, VRSA, Michigan): > 128 µg/mL
- MIC (VRSA clinical isolates; VRS6, VRSA, Michigan): 64 µg/mL (≈ 177 µM)
- MIC (VRSA clinical isolates; VRS7, VRSA, Michigan): 64 µg/mL (≈ 177 µM)
- MIC (Enterococcus faecalis; E. faecalis 36-15672, quinolone-susceptible enterococci): 2 µg/mL (≈ 5.53 µM)
- MIC (Enterococcus faecalis; E. faecalis 36-15673, quinolone-susceptible enterococci): 2 µg/mL (≈ 5.53 µM)
- MIC (Enterococcus faecalis; E. faecalis 36-15678, quinolone-susceptible enterococci): 2 µg/mL (≈ 5.53 µM)
- MIC (Enterococcus faecalis; E. faecalis 36-15686, quinolone-resistant enterococci): 128 µg/mL (≈ 354 µM)
- MIC (Enterococcus faecalis; E. faecalis 36-15688, quinolone-susceptible enterococci): 2 µg/mL (≈ 5.53 µM)
- MIC (Enterococcus faecalis; E. faecalis 36-15694, quinolone-resistant enterococci): 64 µg/mL (≈ 177 µM)
- MIC (Enterococcus faecalis; E. faecalis 36-15696, quinolone-susceptible enterococci): 2 µg/mL (≈ 5.53 µM)
- MIC (Enterococcus faecalis; E. faecalis 36-15703, quinolone-resistant enterococci): 64 µg/mL (≈ 177 µM)
- MIC (Enterococcus faecalis; E. faecalis 36-15716, quinolone-resistant enterococci): 128 µg/mL (≈ 354 µM)
- MIC (Enterococcus faecalis; E. faecalis 36-15718, quinolone-susceptible enterococci): 2 µg/mL (≈ 5.53 µM)
- MIC (Enterococcus faecalis; E. faecalis 36-15720, quinolone-susceptible enterococci): 2 µg/mL (≈ 5.53 µM)
- MIC (Enterococcus faecalis; E. faecalis 36-15722, quinolone-resistant enterococci): 64 µg/mL (≈ 177 µM)
- MIC (Enterococcus faecalis; E. faecalis 36-15726, quinolone-resistant enterococci): 128 µg/mL (≈ 354 µM)
- MIC (Enterococcus faecalis; E. faecalis 36-15730, quinolone-susceptible enterococci): 4 µg/mL (≈ 11.1 µM)
- MIC (Enterococcus faecalis; E. faecalis 36-15736, quinolone-susceptible enterococci): 2 µg/mL (≈ 5.53 µM)
- MIC (Enterococcus faecalis; E. faecalis 36-15741, quinolone-susceptible enterococci): 4 µg/mL (≈ 11.1 µM)
- MIC (Enterococcus faecalis; NCTC 12201 / VRE, E. faecalis NCTC12201, vancomycin-resistant (VRE), quinolone-susceptible enterococci): 2 µg/mL (≈ 5.53 µM)
- MIC (Enterococcus faecalis; NCTC 12203 / VRE, E. faecalis NCTC12203, vancomycin-resistant (VRE), quinolone-susceptible enterococci): 2 µg/mL (≈ 5.53 µM)
